Data reported in patent US20250319019A1, “BUCCOMUCOADHESIVE PATCH-BASED DRUG DELIVERY SYSTEM FOR TACROLIMUS” (priority 2022, published 2025).

Experiments:
[1] = poor and variable, intestinal absorption; background statement; cited from earlier work
[2] = In-vivo pharmacokinetic evaluation, single dose; parameters: species or system New Zealand White rabbits; conditions: New Zealand White, whole blood
Method: The study was performed in New Zealand White rabbits as per the CPCSEA guidance. Overnight fasted animals were anaesthetised with Ketamine (30-40 mg/kg) and Xylazine (10 mg/kg) and 1 mg BAPTac patch was administered on the buccal surface of the oral cavity. The control group was administered 1 mg tacrolimus in PBS and 30% Ethanol. 0.5-0.75 ml of blood was taken from each rabbit via the marginal ear vein using 23 gauge needles through a butterfly cannula. The blood samples were collected before initiation of the treatment and after the administration of oral Tacrolimus or Tacrolimus-SLN-loaded buccal patch at time intervals of 15 min, 30 min, 1 h, 1.5 h, 2 h, 4 h, 6 h, 8 h, 12 h and 24 hours for the single dose PK study. Blood samples were collected in EDTA tubes, aliquoted and stored in amber-coloured tubes at −80° C. until quantification by LC-MS/MS.

C=CC[C@@H]1/C=C(\C)C[C@H](C)C[C@H](OC)[C@H]2O[C@@](O)(C(=O)C(=O)N3CCCC[C@H]3C(=O)O[C@H](/C(C)=C/[C@@H]3CC[C@@H](O)[C@H](OC)C3)[C@H](C)[C@@H](O)CC1=O)[C@H](C)C[C@@H]2OC (relative stereo) [Tacrolimus, [3S[3R*[E(1S*,3S*,4S*)],4S*,5R*,8S*,9E,12R*,14R*,15S*,16R*,18S*,19S*, 26aR*]]5,6,8,11,12,13,14,15,16,17,18,19,24,25,26,26a-hexadecahydro-5,19-dihydroxy-3-[2-(4-hydroxy-3-methoxycyclohexyl)-1-methylethenyl]-14,16-dimethoxy-4,10,12,18-tetramethyl-8-(2-propenyl)-15,19-epoxy-3H-pyrido[2,1-c][1,4]oxaazacyclotricosine-1,7,20,21(4H,23H)-tetrone, monohydrate]
bioavailability (average) [1]: 25% | concentration at 0.25 h ([2]; 1 mg, heading: Average Tac conc., rabbit blood, 0.25 (15 mins) after single 1 mg dose (oral or buccal patch), LC-MS/MS): 3.6 ng/mL | concentration at 0.5 h ([2]; 1 mg, heading: Average Tac conc., rabbit blood, 0.5 (30 mins) after single 1 mg dose (oral or buccal patch)): 12.3 ng/mL | concentration at 1 h ([2]; 1 mg, heading: Average Tac conc., rabbit blood, 1.0 (60 mins) after single 1 mg dose (oral or buccal patch)): 17.2 ng/mL | concentration at 1.5 h ([2]; 1 mg, heading: Average Tac conc., rabbit blood, 1.5 (90 mins) after single 1 mg dose (oral or buccal patch)): 46.9 ng/mL | concentration at 2 h ([2]; 1 mg, heading: Average Tac conc., rabbit blood, 2.0 (120 mins) after single 1 mg dose (oral or buccal patch)): 31.3 ng/mL | concentration at 4 h ([2]; 1 mg, heading: Average Tac conc., rabbit blood, 4.0 (240 mins) after single 1 mg dose (oral or buccal patch)): 14.5 ng/mL | concentration at 6 h ([2]; 1 mg, heading: Average Tac conc., rabbit blood, 6.0 (480 mins) after single 1 mg dose (oral or buccal patch)): 12.3 ng/mL | concentration at 8 h ([2]; 1 mg, heading: Average Tac conc., rabbit blood, 8.0 (640 mins) after single 1 mg dose (oral or buccal patch)): 11.8 ng/mL | concentration at 12 h ([2]; 1 mg, heading: Average Tac conc., rabbit blood, 12.0 (720 mins) after single 1 mg dose (oral or buccal patch)): 7.9 ng/mL | concentration at 24 h ([2]; 1 mg, heading: Average Tac conc., rabbit blood, 24.0 (1440 mins) after single 1 mg dose (oral or buccal patch)): 2.4 ng/mL | half-life ([2]; rabbit, single 1 mg dose (oral or buccal patch), read-out: Elimination t1/2 (converted)): 2.73 ± 2.9 h | AUC(0-t) ([2]; rabbit, single 1 mg dose (oral or buccal patch), read-out: Mean AUC0-24): 250 ± 78.2 ng·h/mL
